Test results taken from patent US20100098640A1, “Multidentate Pyrone-Derived Chelators for Medicinal Imaging and Chelation” (priority 2005, published 2010).

Experiments:
Assay type in all cases: physicochemical
[1] = Competition batch titration with DTPA (pGd); settings: pH 7.4, 24 h equilibration, three titrations
Excerpt: The affinity of these ligands for protons and metal ions in solution is described in terms of formation constants. The protonation of a metal complex can be subsequently calculated from the appropriate cumulative constants. The stability of metal complexes can be discussed in terms of the pM value (in this case pGd) which is expressed as
Although a pM value can be calculated under various conditions (e.g. different pH's or relative concentrations), in the context of a biological scenario the following parameters are commonly used for comparison: [M]=1 μM, [L]=10 μM, and pH=7.4.
The stability of the heteropodate ligands with Gd^3+, Ca^2+, and Zn^2+ can be measured by spectrophotometric titration. The strong UV absorptions (π→π*) of the pyrone rings of the ligands can be monitored in order to follow the complexation reaction (FIG. 2). The titration can be performed in a batch mode, collecting between 20-40 spectra, monitored between 200-500 nm for each titration of a ligand in the presence of an equal molar amount of Gd^3+, Ca^2+ or Zn^2+. […]

Aqueous solubility = test: Aqueous solubility
[2] = Protonation constants of free ligands by potentiometric titration; settings: 1.0 M aqueous NaCl, ligand ~0.5 mM
Protocol: Thermodynamic evaluation of the new ligands can include potentiometric determination of the ligand protonation constants and spectrophotometric evaluation of the Gd^3+, Ca^2+, and Zn^2+ stability constants. In order to determine the stability of these ligands with Gd^3+, first the protonation constants for each ligand is determined. The protonation constants can be measured by potentiometric titration and the assignment of these protonations can be made using ^1H NMR titrations. ^1H NMR titration experiments use changes in the chemical shift of the non-exchangeable protons on the ligand to assign the sites of protonation; data is plotted as chemical shift vs. pD.
The experimental protocols and equipment used have been previously described (Johnson, A. R., et al. Inorg. Chem. 2000, 39, 2652). To determine the protonation constants of the free ligands, approximately 15 mg of ligand was dissolved in 50 mL of a 1.0 M aqueous solution of NaCl in a titration vessel (ligand concentration ˜0.5 mM). Protonation constants of TRENMAM and TREN-Me-MAM were examined by potentiometric (pH vs total proton concentration) titrations by using Hyperquad (Gans, P. et al. Talanta 1996, 43, 1739) for data analysis. Each protonation constant determination is the result from at least three experiments (where each experiment consists of two titrations, the first one titrated with acid, followed by a reverse titration with base). The equilibration time between additions of titrant was 90 seconds.

| Compound | pGd [1] | water solubility compared to the TREN-Me-MAM ligand (Aqueous solubility) | log K1 (protonation constant) [2] | log K2 (protonation constant) [2] | log K3 (protonation constant) [2] | log K4 (protonation constant) [2] |
| --- | --- | --- | --- | --- | --- | --- |
| O=C(NCCN(CCNC(=O)c1occc(=O)c1O)CCNC(=O)c1occc(=O)c1O)c1occc(=O)c1O [TRENMAM] | 19.27±0.08 | improved water solubility | 7.33(1) | 5.76(1) | 4.97(2) | 3.84(2) |
| tris(aminoethyl)amine)methylmaltolamide [TREN-Me-MAM] | 19.03±0.04 | – | 7.91(1) | 6.30(2) | 5.48(2) | 4.46(2) |
